Measurements from article PMC3253112, “Functional Evolution of Duplicated Odorant-Binding Protein Genes, Obp57d and Obp57e, in Drosophila” (PLoS ONE, 2012).
Residue numbers refer to the chain shown, from its start.

Experiments:
Test in all cases: intrinsic tryptophan fluorescence quenching
Assay type in all cases: binding
Conditions in all cases: 20 mM sodium acetate pH 5.0, 25 °C, 1 µM OBP; Q = ligand concentration at which 3% of OBP is bound
Dmel\OBP57e = target: T1, Dmel\OBP57e (Drosophila melanogaster, UniProt Q9V938)
T1 construct: mature protein, signal peptide removed, untagged; cloning primer encodes NTSVFNP
T1 sequence (Q9V938 21-136): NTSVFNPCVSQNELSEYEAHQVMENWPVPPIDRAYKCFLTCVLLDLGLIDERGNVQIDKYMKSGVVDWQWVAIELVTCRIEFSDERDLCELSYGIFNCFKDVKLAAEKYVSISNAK

Dpse\OBP57de = target: T2, Dpse\OBP57de (Drosophila pseudoobscura, UniProt A0A6I8UUP3)
T2 construct: gene LOC4804642; mature protein, signal peptide removed, untagged, Met added; primer encodes N-terminus HSNTAIFN
T2 sequence (A0A6I8UUP3 20-133): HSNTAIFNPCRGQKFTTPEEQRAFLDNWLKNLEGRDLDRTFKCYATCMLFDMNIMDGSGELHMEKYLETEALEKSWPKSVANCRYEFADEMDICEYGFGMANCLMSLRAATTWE

Dmel\OBP57d [1] = target: T3, Dmel\OBP57d (Drosophila melanogaster, UniProt Q8MMF9, L133A)
T3 construct: mature protein, signal peptide removed, untagged, Met added; primer encodes N-terminus NDPCPHNQGID, C-terminus LTKS
T3 sequence (Q8MMF9 30-136 L133A): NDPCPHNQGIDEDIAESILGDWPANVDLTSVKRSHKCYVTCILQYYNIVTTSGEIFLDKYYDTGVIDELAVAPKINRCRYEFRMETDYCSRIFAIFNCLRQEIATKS

Dmel\OBP57d [2] = target: T4, Dmel\OBP57d (Drosophila melanogaster, UniProt Q8MMF9)
T4 construct: mature protein, signal peptide removed, untagged, Met added; primer encodes N-terminus NDPCPHNQGID, C-terminus LTKS
T4 sequence (Q8MMF9 30-136): T3 sequence (Q8MMF9 30-136 L133A) with A104L

Dmel\OBP57d [3] = target: T5, Dmel\OBP57d (Drosophila melanogaster, UniProt Q8MMF9, Y89A)
T5 construct: mature protein, signal peptide removed, untagged, Met added; primer encodes N-terminus NDPCPHNQGID, C-terminus LTKS
T5 sequence (Q8MMF9 30-136 Y89A): T3 sequence (Q8MMF9 30-136 L133A) with Y60A, A104L

Dmel\OBP57d [4] = target: T6, Dmel\OBP57d (Drosophila melanogaster, UniProt Q8MMF9, D96A)
T6 construct: mature protein, signal peptide removed, untagged, Met added; primer encodes N-terminus NDPCPHNQGID, C-terminus LTKS
T6 sequence (Q8MMF9 30-136 D96A): T3 sequence (Q8MMF9 30-136 L133A) with D67A, A104L

Dmel\OBP57d [5] = target: T7, Dmel\OBP57d (Drosophila melanogaster, UniProt Q8MMF9, DEL101-101)
T7 construct: mature protein, signal peptide removed, untagged, Met added; primer encodes N-terminus NDPCPHNQGID, C-terminus LTKS
T7 sequence (Q8MMF9 with tags, fused parts or gaps DEL101-101): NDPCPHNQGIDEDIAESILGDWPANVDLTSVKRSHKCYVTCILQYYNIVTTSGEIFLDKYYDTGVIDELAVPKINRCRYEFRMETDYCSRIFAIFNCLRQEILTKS

Dmel\OBP57d [6] = target: T8, Dmel\OBP57d (Drosophila melanogaster, UniProt Q8MMF9, P52A)
T8 construct: mature protein, signal peptide removed, untagged, Met added; primer encodes N-terminus NDPCPHNQGID, C-terminus LTKS
T8 sequence (Q8MMF9 30-136 P52A): T3 sequence (Q8MMF9 30-136 L133A) with P23A, A104L

Dmel\OBP57d [7] = target: T9, Dmel\OBP57d (Drosophila melanogaster, UniProt Q8MMF9, C33A)
T9 construct: mature protein, signal peptide removed, untagged, Met added; primer encodes N-terminus NDPCPHNQGID, C-terminus LTKS
T9 sequence (Q8MMF9 30-136 C33A): T3 sequence (Q8MMF9 30-136 L133A) with C4A, A104L

Structure (SMILES): CCCCCCCCCC(=O)O [C10, decanoic acid]
- Q (quenching value) (Dmel\OBP57e): particularly obvious in the affinity to C10–C13 fatty acids and 1-tridecanol

Structure (SMILES): CCCCCCCCCCC(=O)O [C11, C11 fatty acid]
- Q (quenching value) (Dmel\OBP57e): particularly obvious in the affinity to C10–C13 fatty acids and 1-tridecanol

Structure (SMILES): CCCCCCCCCCCC(=O)O [C12, C12 fatty acid]
- Q (quenching value) (Dpse\OBP57de): The binding affinity of Dmel\OBP57e and Dpse\OBP57de to the same set of compounds was examined
- Q (quenching value) (Dmel\OBP57e): particularly obvious in the affinity to C10–C13 fatty acids and 1-tridecanol

Structure (SMILES): CCCCCCCCCCCCC(=O)O [C13, tridecanoic acid]
- Q (quenching value) (Dmel\OBP57d [1]): none showed a complete loss of interaction with ligands
- Q (quenching value) (Dmel\OBP57d [2]): the strongest interaction was observed with the longer chain fatty acid (tridecanoic acid: C13)
- Q (quenching value) (Dmel\OBP57d [3]): none showed a complete loss of interaction with ligands
- Q (quenching value) (Dmel\OBP57d [4]): none showed a complete loss of interaction with ligands
- Q (quenching value) (Dmel\OBP57d [5]): none showed a complete loss of interaction with ligands
- Q (quenching value) (Dmel\OBP57d [6]): none showed a complete loss of interaction with ligands
- Q (quenching value) (Dmel\OBP57e): Dmel\OBP57e also showed higher affinity than Dpse\OBP57de, not only to tridecanoic acid
- Q (quenching value) (Dmel\OBP57d [7]): none showed a complete loss of interaction with ligands
